From patent EP0874631B1, “USE OF VALACICLOVIR FOR THE MANUFACTURE OF A MEDICAMENT FOR THE TREATMENT OF GENITAL HERPES BY A SINGLE DAILY APPLICATION” (priority 1996, dated 1997)
Structures can show the parent of a compound that is named as a salt. Where two headings read alike, the source gives them in different places.

Experiments:
Type in all cases: in vivo, human
[1] = tested on: genital herpes simplex virus (HSV) infection; conditions: for recurrences prevented or delayed / recurrences experienced by placebo patients prevented or delayed: 52 weeks; for safety profiles (valaciclovir, aciclovir and placebo compared): in vivo
Text: Objective: To determine the efficacy and safety of 4 doses of oral valaciclovir compared with aciclovir and placebo for the suppression of genital herpes in otherwise healthy patients.
Methods: This study was a multi-centre, international, six-arm, parallel group, randomised, double-blind comparison of the efficacy and safety of 4 doses of oral valaciclovir with oral aciclovir and placebo for the suppression of recurrent episodes of genital herpes simplex virus (HSV) infection in immunocompetent patients. A total of 1279 patients with a history of recurrent genital herpes were randomised into one of 6 treatment arms with a 2:2:2:2:2:1 treatment allocation and followed for 52 weeks. Patients visited the clinic at monthly intervals and on Days 1 and 5 of a genital HSV recurrence. Safety was assessed by adverse experience reporting at each visit and by clinical chemistry and haematology testing every 3 or 6 months respectively.
274 patients received 250 mg twice daily valaciclovir (reference example); 269 patients received 1000 mg once daily valaciclovir; 266 patients received 500 mg once daily valaciclovir; 269 patients received 250 mg once daily valaciclovir; 267 patients received 400 mg twice daily aciclovir; and 134 patients received placebo.

[2] = tested on: frequently recurrent genital herpes; test: double blind, placebo controlled multicentre clinical trial of once daily suppressive therapy; conditions: 500 mg once daily
Procedure: In another study once daily valaciclovir (as the hydrochloride salt), was evaluated as suppressive therapy in a double blind, placebo controlled multicentre clinical trial in otherwise healthy immunocompetent patients with frequently recurrent genital herpes. A total of 382 patients with a history of >8 genital herpes recurrences per year were randomised (3:1) to treatment with once daily valaciclovir (500 mg) or placebo for 16 weeks. Patients experiencing a recurrence discontinued double blind therapy and received open label episodic valaciclovir (500 mg twice daily) for 5 days. They then continued on open label daily valaciclovir, as did those completing the 16 week double blind phase of study without evidence of a breakthrough recurrence, for a total of 48 weeks. Patients were assessed 4-weekly (double blind phase) and every 8 weeks thereafter. The primary efficacy end-point was time to first genital herpes recurrence.

recurrent genital herpes = test: open-label 1-year study of suppressive therapy in patients previously on chronic acyclovir suppression
Procedure: OBJECTIVE: To document the number of genital herpes outbreaks during a 1-year period of suppressive therapy with valaciclovir hydrochloride in patients previously receiving chronic suppressive therapy with acyclovir. METHODS: A total of 127 patients (81 Males, 46 Females) from 11 study sites enrolled in this open-label study. […] Upon discontinuation of acyclovir, patients received 500 mg valaciclovir hydrochloride once daily. For any genital herpes recurrence, patients self-initiated treatment with valaciclovir hydrochloride 500 mg twice daily for 5 days, then resumed once daily therapy. Patients documented recurrences in a diary and returned to the clinic every three months for drug safety and recurrence evaluation.

[3] = 250 mg twice daily (reference example)
[4] = 400 mg twice daily, entire tenth study year of acyclovir suppression

Compound	patients remained recurrence-free during the study period ([1]; 250 mg once daily, 12 months) [%]	recurrences prevented or delayed ([1]; 250 mg once daily) [%]	patients recurrence-free after 12 months [1, 3]	recurrences experienced by placebo patients prevented or delayed [1, 3]	patients recurrence-free at 12 months ([1]; 500 mg once daily)	recurrences prevented or delayed ([1]; 500 mg once daily) [%]	patients recurrence-free after 12 months ([1]; 1000 mg once daily)	recurrences experienced by placebo patients prevented or delayed ([1]; 1000 mg once daily)	safety profiles (valaciclovir, aciclovir and placebo compared) [1]	reduction in recurrence rate relative to placebo ([2]; 16 weeks, intent-to-treat population) [%]	tolerability ([2]; adverse events infrequent and generally mild)	total recurrence free rate (recurrent genital herpes; 500 mg once daily, after six months of suppressive therapy (93 of 126 patients)) [%]	patients remained free of recurrences (recurrent genital herpes; 500 mg once daily, after the first three months of suppressive therapy (102 of 126 patients)) [%]	patients remained free of recurrences (recurrent genital herpes; 500 mg once daily, following the next three months of suppressive therapy (101 of 119 patients)) [%]	tolerability (recurrent genital herpes; 500 mg once daily, for 6 months)	patients recurrence-free after 12 months ([1]; 400 mg twice daily)	recurrences experienced by placebo patients prevented or delayed ([1]; 400 mg twice daily)	mean quarterly recurrence free rate (recurrent genital herpes; [4]) [%]	yearly recurrence free rate (recurrent genital herpes; [4]) [%]
CC(C)[C@H](N)C(=O)OCCOCn1cnc2c(=O)[nH]c(N)nc21 [valaciclovir, 2-[(2-amino-1,6-dihydro-6-oxo-9H-purin-9-yl)methoxy]ethyl L-valinate]	22	54	approximately half	78-79%	Forty	71	approximately half	78-79%	similar	85	well tolerated	–	–	–	–	–	–	–	–
CC(C)[C@H](N)C(=O)OCCOCn1cnc2c(=O)[nH]c(N)nc21 [valaciclovir hydrochloride, 2-[(2-amino-1,6-dihydro-6-oxo-9H-purin-9-yl)methoxy]ethyl-L-valinate hydrochloride]	–	–	–	–	–	–	–	–	–	–	–	74	81	85	well tolerated	–	–	–	–
Nc1nc2c(ncn2COCCO)c(=O)[nH]1 [acyclovir, 9-[(2-hydroxyethoxy)methyl]guanine, reference compound]	–	–	–	–	–	–	–	–	similar	–	–	–	–	–	–	approximately half	78-79%	89	75
